Measured values taken from PMC10786919, “Design-rules for stapled peptides with in vivo activity and their application to Mdm2/X antagonists” (Nature Communications, 2024).
Where two headings read alike, the source gives them in different places. Positions of bridges follow the written chain, without caps; N, C: chain ends. Non-standard residues stand in square brackets, D forms with d. Residues, ends and D or L forms follow the SMILES beside them. R8 = C=CCCCCCC[C@@](C)(N)C(=O)O; S5 = C=CCCC[C@](C)(N)C(=O)O; Ahx = NCCCCCC(=O)O

Assays:
Format in all cases: cell-based
[1] = Lactate dehydrogenase (LDH) release assay; conditions: LDH: Cytotoxicity assay EC50
Outline: (§1)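 HCT116 cells stably carrying a p53-responsive β-lactamase reporter, seeded at 8000 cells/well, exposed to compound with 0.5% final DMSO. LDH release read with the CytoTox-ONE membrane integrity kit. Values are geometric means of at least three biological replicates.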

HCT116 cells = assay: Lactate dehydrogenase (LDH) release assay
Outline: as §1

[2] = system: p53 responsive β-lactamase reporter in HCT116 cells; assay: cells; conditions: 0% FBS 4Hr
Description: HCT116 cells were stably transfected with a p53 responsive β-lactamase reporter and expanded in McCoy’s 5 A Medium with 10% fetal bovine serum (FBS), Blasticidin, and Penicillin/Streptomycin and then transferred to 1.5 ml freezing vials and stored under liquid nitrogen in growth media containing 5% DMSO. […] The cells were then seeded into a 384-well plate at a density of 8000 cells per well. […] The final working concentration of DMSO was 0.5%. β-lactamase activity was detected using the ToxBLAzer Dual Screen (Invitrogen), as per the manufacturer’s instructions. Measurements were made using the Envision multiplate reader (Perkin–Elmer). […] Measurements were taken a minimum of three times (biological replicates) and values are reported as geometric means of the replicates.

[3] = read-out: p53 reporter assay EC50
[4] = read-out: p53 reporter assay: EC50

| SMILES | EC50 [1] | LDH: Cytotoxicity assay % Effect (HCT116 cells) | EC50 [2, 3] | EC50 [2, 4] |
| --- | --- | --- | --- | --- |
| CC(=O)N[C@H](C(=O)N[C@@H](CO)C(=O)N[C@@H](Cc1ccccc1)C(=O)N[C@]1(C)CCCCCCC=CCCC[C@@](C)(C(=O)N[C@@H](CCC(N)=O)C(=O)N[C@@H](CC(N)=O)C(=O)N[C@@H](Cc2ccccc2)C(N)=O)NC(=O)[C@H](CC(C)C)NC(=O)[C@H](CC(C)C)NC(=O)[C@H](C)NC(=O)[C@H](Cc2c[nH]c3ccccc23)NC(=O)[C@H](Cc2ccc(O)cc2)NC(=O)[C@H](CCC(=O)O)NC1=O)[C@@H](C)O [MP-2026] | > 50 µM | 23.2% | 0.98 µM |  |
| CC(=O)N[C@@H](CCCCN)C(=O)N[C@@H](CCCCN)C(=O)NCCCCCC(=O)N[C@H](C(=O)N[C@@H](CO)C(=O)N[C@@H](CC(C)C)C(=O)N[C@]1(C)CCCCCCC=CCCC[C@@](C)(C(=O)N[C@@H](CCC(=O)O)C(=O)N[C@@H](CC(N)=O)C(=O)N[C@@H](Cc2ccccc2)C(N)=O)NC(=O)[C@H](Cc2c[nH]c3ccccc23)NC(=O)[C@H](CC(C)C)NC(=O)[C@H](C)NC(=O)[C@H](Cc2ccccc2)NC(=O)[C@H](Cc2ccc(O)cc2)NC(=O)[C@H](CCC(=O)O)NC1=O)[C@@H](C)O [MP-039] (Ac-KK[Ahx]TSL[R8]EYFALW[S5]ENF-NH2; staple 7-14) | > 50 µM | 28.85% | > 50 µM |  |
| CC(=O)N1CCC[C@H]1C(=O)N[C@@H](CCCNC(=N)N)C(=O)N[C@@H](Cc1ccccc1)C(=O)N[C@]1(C)CCCCCCC=CCCC[C@@](C)(C(N)=O)NC(=O)[C@H](CC(C)C)NC(=O)[C@H](CCCNC(=N)N)NC(=O)[C@H](CC(C)C)NC(=O)[C@H](Cc2c[nH]c3ccccc23)NC(=O)[C@H](Cc2ccc(O)cc2)NC(=O)[C@H](CCC(=O)O)NC1=O [MP-031] (Ac-PRF[R8]EYWLRL[S5]-NH2; staple 4-11) | > 50 µM | -3.388% | 32.4 µM |  |
| CC(=O)N1CCC[C@H]1C(=O)N[C@@H](CCCNC(=N)N)C(=O)N[C@@H](Cc1ccccc1)C(=O)N[C@]1(C)CCCCCCC=CCCC[C@@](C)(C(=O)N[C@@H](CCC(=O)O)C(N)=O)NC(=O)[C@H](CC(C)C)NC(=O)[C@H](CCCNC(=N)N)NC(=O)[C@H](Cc2ccc(O)cc2)NC(=O)[C@H](Cc2c[nH]c3ccccc23)NC(=O)[C@H](Cc2ccc(O)cc2)NC(=O)[C@H](CCC(=O)O)NC1=O [MP-2030] (Ac-PRF[R8]EYWYRL[S5]E-NH2; staple 4-11) | > 50 µM | 32.25% | 6.62 µM |  |
| CC(=O)N[C@@H](CCCNC(=N)N)C(=O)NCCCCCC(=O)N[C@H](C(=O)N[C@@H](CO)C(=O)N[C@@H](Cc1ccccc1)C(=O)N[C@]1(C)CCCCCCC=CCCC[C@@](C)(C(=O)N[C@@H](CCC(=O)O)C(=O)N[C@@H](CC(N)=O)C(=O)N[C@@H](Cc2ccccc2)C(N)=O)NC(=O)[C@H](CC(C)C)NC(=O)[C@H](CC(C)C)NC(=O)[C@H](C)NC(=O)[C@H](Cc2c[nH]c3ccccc23)NC(=O)[C@H](Cc2ccc(O)cc2)NC(=O)[C@H](CCC(=O)O)NC1=O)[C@@H](C)O [MP-038] | > 50 µM | 5.515% | 2.49 µM |  |
| CC(=O)N[C@H](C(=O)N[C@@H](CO)C(=O)N[C@@H](Cc1ccccc1)C(=O)N[C@]1(C)CCCCCCC=CCCC[C@@](C)(C(N)=O)NC(=O)[C@H](CC(C)C)NC(=O)[C@H](CCCNC(=N)N)NC(=O)[C@H](Cc2ccc(O)cc2)NC(=O)[C@H](Cc2c[nH]c3ccccc23)NC(=O)[C@H](Cc2ccc(O)cc2)NC(=O)[C@H](CCC(=O)O)NC1=O)[C@@H](C)O [MP-033] (Ac-TSF[R8]EYWYRL[S5]-NH2; staple 4-11) | > 50 µM | 1.548% | 13.6 µM |  |
| CC(=O)N[C@H](C(=O)N[C@@H](CO)C(=O)N[C@@H](CC(C)C)C(=O)N[C@]1(C)CCCCCCC=CCCC[C@@](C)(C(N)=O)NC(=O)[C@H](Cc2c[nH]c3ccccc23)NC(=O)[C@H](CC(C)C)NC(=O)[C@H](C)NC(=O)[C@H](Cc2ccccc2)NC(=O)[C@H](Cc2ccc(O)cc2)NC(=O)[C@H](CCC(=O)O)NC1=O)[C@@H](C)O [MP-2040] (Ac-TSL[R8]EYFALW[S5]-NH2; staple 4-11) | > 50 µM | 24.89% | 7.46 µM |  |
| CC(=O)N[C@@H](CCCNC(=N)N)C(=O)N[C@@H](CCCNC(=N)N)C(=O)NCCCCCC(=O)N[C@H](C(=O)N[C@@H](CO)C(=O)N[C@@H](Cc1ccccc1)C(=O)N[C@]1(C)CCCCCCC=CCCC[C@@](C)(C(=O)N[C@@H](CCC(=O)O)C(=O)N[C@@H](CC(N)=O)C(=O)N[C@@H](Cc2ccccc2)C(N)=O)NC(=O)[C@H](CC(C)C)NC(=O)[C@H](CC(C)C)NC(=O)[C@H](C)NC(=O)[C@H](Cc2c[nH]c3ccccc23)NC(=O)[C@H](Cc2ccc(O)cc2)NC(=O)[C@H](CCC(=O)O)NC1=O)[C@@H](C)O [MP-037] (Ac-RR[Ahx]TSF[R8]EYWALL[S5]ENF-NH2; staple 7-14) | > 50 µM | 3.464% | 20.2 µM |  |
| CC(=O)N[C@H](C(=O)N[C@@H](CO)C(=O)N[C@@H](Cc1ccccc1)C(=O)N[C@]1(C)CCCC=CCCCCCC[C@@](C)(C(N)=O)NC(=O)[C@H](CC(C)C)NC(=O)[C@H](CC(C)C)NC(=O)[C@H](C)NC(=O)[C@H](Cc2c[nH]c3ccccc23)NC(=O)[C@H](Cc2ccc(O)cc2)NC(=O)[C@H](CCC(=O)O)NC1=O)[C@@H](C)O [MP-035] | > 50 µM | 37.58% | 8.8 µM |  |
| CC(=O)N[C@@H](CCCCN)C(=O)N[C@@H](CC(C)C)C(=O)N[C@@H](C)C(=O)N[C@@H](CCCCN)C(=O)NCCCCCC(=O)N[C@H](C(=O)N[C@@H](CO)C(=O)N[C@@H](Cc1ccccc1)C(=O)N[C@]1(C)CCCCCCC=CCCC[C@@](C)(C(=O)N[C@@H](CCC(=O)O)C(=O)N[C@@H](CC(N)=O)C(=O)N[C@@H](Cc2ccccc2)C(N)=O)NC(=O)[C@H](CC(C)C)NC(=O)[C@H](CC(C)C)NC(=O)[C@H](C)NC(=O)[C@H](Cc2c[nH]c3ccccc23)NC(=O)[C@H](Cc2ccc(O)cc2)NC(=O)[C@H](CCC(=O)O)NC1=O)[C@@H](C)O [MP-2041] (Ac-KLAK[Ahx]TSF[R8]EYWALL[S5]ENF-NH2; staple 9-16) | > 50 µM | 5.898% | 6.06 µM |  |
| CC(=O)N[C@@H](CCCCN)C(=O)N[C@@H](CCCCN)C(=O)NCCCCCC(=O)N[C@H](C(=O)N[C@@H](CO)C(=O)N[C@@H](Cc1ccccc1)C(=O)N[C@]1(C)CCCCCC/C=C\CCC[C@@](C)(C(=O)N[C@@H](CCC(=O)O)C(=O)N[C@@H](CC(N)=O)C(=O)N[C@@H](Cc2ccccc2)C(N)=O)NC(=O)[C@H](CC(C)C)NC(=O)[C@H](CC(C)C)NC(=O)[C@H](C)NC(=O)[C@H](Cc2c[nH]c3ccccc23)NC(=O)[C@H](Cc2ccc(O)cc2)NC(=O)[C@H](CCC(=O)O)NC1=O)[C@@H](C)O [MP-095] (Ac-KK[Ahx]TSF[R8]EYWALL[S5]ENF-NH2; staple (Z) 7-14) |  |  |  | 5.83 µM |
| CC(=O)N[C@@H](CCCCN)C(=O)N[C@@H](CCCCN)C(=O)N[C@@H](CO)C(=O)NCC(=O)N[C@@H](CO)C(=O)NCC(=O)N[C@H](C(=O)N[C@@H](CO)C(=O)N[C@@H](Cc1ccccc1)C(=O)N[C@]1(C)CCCCCCC=CCCC[C@@](C)(C(=O)N[C@@H](CCC(=O)O)C(=O)N[C@@H](CC(N)=O)C(=O)N[C@@H](Cc2ccccc2)C(N)=O)NC(=O)[C@H](CC(C)C)NC(=O)[C@H](CC(C)C)NC(=O)[C@H](C)NC(=O)[C@H](Cc2c[nH]c3ccccc23)NC(=O)[C@H](Cc2ccc(O)cc2)NC(=O)[C@H](CCC(=O)O)NC1=O)[C@@H](C)O [MP-052] (Ac-KKSGSGTSF[R8]EYWALL[S5]ENF-NH2; staple 10-17) |  |  | 12.9 µM |  |
| CC(=O)N[C@H](C(=O)N[C@@H](CO)C(=O)N[C@@H](Cc1ccccc1)C(=O)N[C@]1(C)CCCCCC/C=C\CCC[C@@](C)(C(N)=O)NC(=O)[C@H](CC(C)C)NC(=O)[C@H](CC(C)C)NC(=O)[C@H](C)NC(=O)[C@H](Cc2c[nH]c3ccccc23)NC(=O)[C@H](Cc2ccc(O)cc2)NC(=O)[C@H](CCC(=O)O)NC1=O)[C@@H](C)O [MP-2090] |  |  |  | 5.78 µM |
| CC(=O)N1CCC[C@H]1C(=O)N[C@@H](CCCNC(=N)N)C(=O)N[C@@H](Cc1ccccc1)C(=O)N[C@]1(C)CCCCCCC=CCCC[C@@](C)(C(N)=O)NC(=O)[C@H](CC(C)C)NC(=O)[C@H](CCCNC(=N)N)NC(=O)[C@H](Cc2ccc(O)cc2)NC(=O)[C@H](Cc2c[nH]c3ccccc23)NC(=O)[C@H](Cc2ccc(O)cc2)NC(=O)[C@H](CCC(=O)O)NC1=O [MP-2032] (Ac-PRF[R8]EYWYRL[S5]-NH2; staple 4-11) | > 50 µM | -1.239% | 25.7 µM |  |
| CC(=O)N[C@H](C(=O)N[C@@H](CO)C(=O)N[C@@H](Cc1ccccc1)C(=O)N[C@]1(C)CCCCCCC=CCCC[C@@](C)(C(N)=O)NC(=O)[C@H](CC(C)C)NC(=O)[C@H](CCCCN)NC(=O)[C@H](CC(C)C)NC(=O)[C@H](Cc2c[nH]c3ccccc23)NC(=O)[C@H](Cc2ccc(O)cc2)NC(=O)[C@H](CCC(=O)O)NC1=O)[C@@H](C)O [MP-034] (Ac-TSF[R8]EYWLKL[S5]-NH2; staple 4-11) | > 50 µM | 3.672% | 12.8 µM |  |
| CC(=O)N[C@H](C(=O)N[C@@H](CO)C(=O)N[C@@H](Cc1ccccc1)C(=O)N[C@]1(C)CCCCCCC=CCCC[C@@](C)(C(=O)N[C@@H](CCC(=O)O)C(=O)N[C@@H](CC(N)=O)C(=O)N[C@@H](C)C(N)=O)NC(=O)[C@H](CC(C)C)NC(=O)[C@H](CC(C)C)NC(=O)[C@H](C)NC(=O)[C@H](Cc2c[nH]c3ccccc23)NC(=O)[C@H](Cc2ccc(O)cc2)NC(=O)[C@H](CCC(=O)O)NC1=O)[C@@H](C)O [MP-088] |  |  |  | 22.3 µM |
